The values that follow are results of earlier work, collected in patent US20070053923A1, “Dna vaccine composition with enhanced immunogenicity” (priority 2003, published 2007).

The subject of this data set is immune cells. Conditions: via FPR and FPRL1, as reported.

For the substance WKYMVM-NH2, the “Activation of immune cells” value is reported as “potent activator of immune cells”.
